The structures appear in SMILES notation. Values after ≈ are worked out from the molar mass of the structure shown. Marks after values point to notes of the source that are not given here.

The values below come from US20180312880A1, “NATURAL BROAD-SPECTRUM BIOCIDES” (CONSEJO SUPERIOR DE INVESTIGACIONES CIENTÍFICAS, priority 2015, published 2018).

In one series the test system is S. littoralis. In words: Anti-feeding activity on leaf disks (% FI). Format: in vivo, Spodoptera littoralis. The following applies: compounds at 50 μg/cm^2. How it is done: (§1) Breeding and maintenance of the insects was carried out in a temperature-controlled chamber at 24±1° C., 60-70% relative humidity and a photoperiod of 16:8 hours (light:darkness). Larvae of S. littoralis were maintained on a semisynthetic diet (Poitut and Bues. 1970. Ann. Zool. Ecol. Anim. 2, 79-91) and aphids M. persicae and Rhopalosiphum padi on their host plants, pepper—Capsicum annuum L.—and barley—Hordeum vulgare L.—respectively. Tests on anti-feeding activity were carried out with newly hatched larvae of the sixth stage of S. littoralis and wingless adult aphids. The upper surface of leaf disks (1.0 cm^2) of the pepper (Capsicum annuum L.) were treated with 10 μl of a solution (10 mg/ml for extracts and 5 mg/ml for pure products). […] Once consumed 75% of the surface of the control dishes (S. littoralis) or after 24 h (M. persicae or R. padi) the consumption (% FI) or settlement index (% SI), was calculated respectively. % FI=[1−(T/C)×100], where T and C are the consumption of treated leaves discs and control; % SI=[1−(% T/C %)] where % C and % T are the percentage of aphids settled on the discs of control and treated leaves (Burgueño et al. 2008. J. Chem. Ecol. 34, 766-771). […]

Another series has as its system M. persicae. Briefly: Aphid settlement inhibition on leaf disks (% SI). Format: in vivo, Myzus persicae. Conditions: for M. persicae % SI: compounds at 50 μg/cm^2, 24 h; for EC50 (M. persicae): dose-response, settlement inhibition, limits in brackets. As for the experimental part:
Breeding and maintenance of the insects was carried out in a temperature-controlled chamber at 24±1° C., 60-70% relative humidity and a photoperiod of 16:8 hours (light:darkness). Larvae of S. littoralis were maintained on a semisynthetic diet (Poitut and Bues. 1970. Ann. Zool. Ecol. Anim. 2, 79-91) and aphids M. persicae and Rhopalosiphum padi on their host plants, pepper—Capsicum annuum L.—and barley—Hordeum vulgare L.—respectively. Tests on anti-feeding activity were carried out with newly hatched larvae of the sixth stage of S. littoralis and wingless adult aphids. The upper surface of leaf disks (1.0 cm^2) of the pepper (Capsicum annuum L.) were treated with 10 μl of a solution (10 mg/ml for extracts and 5 mg/ml for pure products). Each test consisted of 5 Petri dishes with two (S. littoralis) larvae per dish or twenty boxes (2×2 cm) with ten M. persicae or R. padi aphids incubated in a growth chamber under the same conditions described for the breeding of the insects. Once consumed 75% of the surface of the control dishes (S. littoralis) or after 24 h (M. persicae or R. padi) the consumption (% FI) or settlement index (% SI), was calculated respectively. % FI=[1−(T/C)×100], where T and C are the consumption of treated leaves discs and control; % SI=[1−(% T/C %)] where % C and % T are the percentage of aphids settled on the discs of control and treated leaves (Burgueño et al. 2008. J. Chem. Ecol. 34, 766-771). Compounds with an FI/SI>70% were tested in a dose-response experiment to calculate its relative potency (EC50, being the effective dose for a reduction of 50% of feeding).

Another series has as its system Botrytis cinerea. In words: Antifungal activity, agar dilution, mycelial growth inhibition. Format: cell-based. Conditions: for inhibition at 500 µg/mL: 0.5 mg/ml, 48 h. As for the experimental part:
(§2) Phytopathogenic fungi Fusarium moniliforme (Sheldon) [CECT 2152] F. oxysporum fs. lycopersici ([…] 2715] and F. solani (Mart) [CECT 2199] come from the Spanish Type Culture Collection (CECT). The strain Botrytis cinerea Pers.:Fr. (B05.10) is a donation from the Biochemistry Department at the University of La Laguna (ULL). For their maintenance the strains were grown on solid commercial medium PDA at 25° C. […] To determine the antifungal activity, the agar dilution method was used (Murabayashi et al. 1991. J. Pesticide Sci. 16, 419-427). […] In parallel, controls were prepared with ethanol at a concentration of 2%. […] Colonies grown in petri dishes and incubated for 48 h were digitized and measured using the ImageJ 1.43 software. The percentage of inhibition (% I) was calculated as: % I=(C-T/C)×100, where C is the diameter of control colonies and T of the colonies of the tested samples. The growth inhibition effective dose (EC50) was determined by linear regression analysis (% of inhibition of dose log).
(In general: In agar dilution the substance is mixed into plates at graded concentrations.)

For the next series, the system named is M. javanica. Briefly: Nematicidal activity on infective juveniles (J2). It is filed as in vivo, Meloidogyne javanica. Conditions: J2, 72 h. As for the experimental part: The nematode population (M. javanica) was maintained in growth chambers on tomato plants—Lycopersicon esculentum (var Marmande)—at 25° C. and a relative humidity of 70%. The tests were carried out according to the methodology described for M. javanica (Andres et al. 2012. Phytochem. Rev. 11, 371-390) using the biological stage of infective juveniles (J2). […] Each treatment was repeated four times and nematicidal activity was determined from the percentage of infective juveniles dead after 72 h. In cases in which a mortality rate of >99% was determined, dose-response experiments were carried out to determine LC50 and LC90.

The test system of another series is Lactuca sativa. In words: Phytotoxicity test on seeds (germination, root growth). The following applies: for Germination (% C) 72 h / Growth (% C) Root: Lactuca sativa; for Germination (% C) 72 h / Growth (% C) Root / phytotoxic effects on germination and root development: in vivo; for Growth (% C) Root: 6 days. How it is done:
[…] 500 μl of distilled water and 10/5 seeds, were added to each well, and the plates were incubated in a growth chamber at 25° C., 70% relative humidity and a 16:08 L:D photoperiod. Seeds' germination was recorded for six days and the elongation of roots was assessed at the end of the experiment. The data were analysed by variance analysis (ANOVA).

For the next series, the system named is R. padi. In words: Aphid settlement inhibition on leaf disks (% SI). It is filed as in vivo, Rhopalosiphum padi. Conditions: compounds at 50 μg/cm^2; 24 h. How it is done: as §1
In another series the test system is F. moniliforme. In words: Antifungal activity, agar dilution, mycelial growth inhibition. It is filed as cell-based, Fusarium moniliforme. Conditions: Fusarium verticillioides; tested at 0.1 mg/ml (footnote a); 48 h. As for the experimental part: as §2
The subject of another series is F. solani. Described as above. It is filed as cell-based. Conditions: Fusarium solani. As for the experimental part: as §2

On to `CCCCCC1=CC(=O)[C@](O)(CCCC)[C@H](O)C1` (stereo in doubt) [Stempholone A, 6-butyl-5,6-dihydroxy-3-pentylcyclohex-2-en-1-one], for which, in the series with S. littoralis, the “S. littoralis % FI” value worked out at 41.8 ± 7.9%. In addition, in the series with M. persicae, the “M. persicae % SI” value was 81.42 ± 5.61% and the “EC50 (M. persicae)” value is recorded as 0.15 (0.06-0.36)* μg/cm^2. At 500 µg/mL the inhibition in the series on Botrytis cinerea was 56.2 ± 1.5%. In addition, the EC50 in the series with Botrytis cinerea (growth inhibition, linear regression, read-out: EC50 (95% CL) Botrytis cinerea) worked out at 430 µg/mL (≈ 1690 µM). Also, in the series on M. javanica (0.25 mg/ml), the “M. javanica % paralysed” value was found to be 2.8 ± 0.5%. The “M. javanica % paralysed” value with M. javanica (0.5 mg/ml) is 83.05 ± 3.15%. In the series with Lactuca sativa (5 μg/μl), the “Germination (% C) 72 h” value is reported as 97.50 ± 3.54^ % C and the “Growth (% C) Root” value is given as 230.26 ± 21.33 % C. Besides, in the series with Lactuca sativa, the “phytotoxic effects on germination and root development” value is given as “absence of phytotoxic effects”.

Take `CCCC[C@@]1(O)C(=O)C=C(CCCC(C)O)C[C@H]1O` (stereo in doubt) [Stempholone B, 6-butyl-5,6-dihydroxy-3-(4-hydroxypentyl)cyclohex-2-en-1-one]: the “S. littoralis % FI” value with S. littoralis came to 52.9 ± 5.9%. Also, in the series on M. persicae, the “M. persicae % SI” value was determined as 83.87 ± 6.89% and the “EC50 (M. persicae)” value is listed as 0.02 (0.003-0.15)* μg/cm^2. Further, in the series on R. padi, the “R. padi % SI” value came to 45.13 ± 9.09%. The same compound displayed an inhibition at 100 µg/mL in the series on F. moniliforme of 4.2%. The same compound returned an inhibition at 500 µg/mL with Botrytis cinerea of 11.9 ± 3.67%. Besides, the EC50 in the series on F. solani (growth inhibition, linear regression, read-out: EC50 (95% CL) F. solani) worked out at 210 µg/mL (≈ 777 µM). Moreover, in the series on F. solani (tested at 0.1 mg/ml (footnote a), 48 h), the inhibition at 100 µg/mL is 49.9%. Also, the “M. javanica % paralysed” value with M. javanica (0.5 mg/ml) amounted to 1.24 ± 0.9%. For the same compound, in the series with Lactuca sativa (5 μg/μl), the “Germination (% C) 72 h” value is 100 ± 0.00 % C and the “Growth (% C) Root” value turned out to be 109.26 ± 9.57 % C. Besides, the “phytotoxic effects on germination and root development” value in the series with Lactuca sativa is reported as “absence of phytotoxic effects”.

Consider `O=C1C=CC(=O)c2c(O)cccc21` [juglone, reference compound], for which the germination result in the series on Lactuca sativa (positive control of germination inhibition, 5 μg/μl) is recorded as “lower than 5%”.

For orientation: inhibition means the share of the control response that was lost under treatment. Low values mean a weak effect, high ones a strong effect. As usually defined, the EC50 is the concentration giving half of the maximal effect.
